Paper PMC7589021, “Setup and Validation of a Reliable Docking Protocol for the Development of Neuroprotective Agents by Targeting the Sigma-1 Receptor (S1R)” (International Journal of Molecular Sciences, 2020)
Where a name gives a salt, the structure may show the parent alone. Read-outs that look alike come from different tables or passages of the source.

What was measured:
[1] = target: T1, S1R (Cavia porcellus, UniProt Q60492); assay: S1R binding affinity of previously published compounds; conditions: ln of experimental Ki S1R (nM), Table 1
Source text: Table 1 Glide Gscores, calculated Ligand Efficiencies and experimentally determined Ki values of compounds 1–8 employed for the elaboration of the docking model. | column: ln(Ki)

[2] = target: T1, S1R; assay: S1R radioligand binding assay ([3H](+)-pentazocine, guinea pig brain cortex membranes); design: The thawed membrane preparation of guinea pig brain cortex; from tissue; host or cells: guinea pig brain (cerebral) cortex membranes
[3] = target: T2, S2R (Rattus norvegicus, UniProt Q5U3Y7); assay: S2R radioligand binding assay ([3H]-DTG, rat liver membranes); conditions: (+)-pentazocine to mask S1R
T2 construct: The assay was performed using 150 µg of rat liver homogenate; from tissue; host or cells: rat liver homogenate / membranes
T2 sequence (Q5U3Y7 1-176): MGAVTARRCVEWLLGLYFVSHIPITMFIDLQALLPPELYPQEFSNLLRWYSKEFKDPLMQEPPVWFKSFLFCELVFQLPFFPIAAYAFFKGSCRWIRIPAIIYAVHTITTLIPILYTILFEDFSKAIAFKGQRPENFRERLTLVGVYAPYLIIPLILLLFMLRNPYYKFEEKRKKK

[4] = target: T3, GluN2 subunit of NMDA (GluN1a and GluN2B subunits) (Homo sapiens, UniProt Q05586+Q13224); assay: GluN2 binding assay ([3H]-ifenprodil, membranes of transfected L(tk-) cells)
T3 construct: expressed in transfected cells; host or cells: L(tk-) cells, stably transfected

[5] = target: AChE (Electrophorus electricus, UniProt O42275); assay: Inhibition of AChE, modified Ellman's method; type: biochemical
Experimental: To test the potential to inhibit AChE, a spectrophotometric procedure was adopted, based on the well-known Ellman’s method. Firstly, the target compound was tested at a concentration of 50 μM and a 72% of inhibition was observed.
AChE inhibitory activity of compound 12 was determined by the modified Ellman’s method. Briefly, a stock solution of tested compound (5.0 mM) was prepared in DMSO and diluted using 0.1 M KH2PO4/K2HPO4 buffer (pH 8.0) to afford a final concentration range between […]. Enzyme solutions were prepared by dissolving lyophilized powder in double-distilled water. […] The reaction was started by addition of […] of the 0.075 M substrate solution (acetylthiocholine iodide) and exactly 2 min after substrate addition, the absorption was measured at 25 °C at 412 nm. In enzyme-free assay systems the non-enzymatic hydrolysis of acetylthiocholine iodide was measured, and the results were employed as blank. […] Each experiment was performed in triplicate, and the mean ± standard deviation was calculated. Data from concentration-inhibition experiments of the inhibitors were calculated by nonlinear regression analysis, using the Excel program.

[6] = test system: HeLa cells; assay: Osmotic water permeability (AQP-mediated), stopped-flow light scattering; type: cell-based
Experimental: Prompted by these encouraging results, we decided to draw the antioxidant profile of compound 12, since it is well-known that oxidative stress is connected with insurgence and exacerbation of neurodegenerative diseases. In particular, the AQP-mediated antioxidant properties of RC-33 (i.e., 1-[3-(1,1′-biphen)-4-yl]butylpiperidine, our in-house developed selective S1R agonist) and 12 were evaluated in HeLa cells, following the procedures reported in our most recent studies. Briefly, osmotic water permeability was measured by a stopped-flow light scattering method and expressed as percentage of k relative. Compounds RC-33 and 12 were tested at 20 µM whereas curcumin was used as control of the goodness of the cellular assay, since its capability to affect the AQPs permeability was assessed in our previous work. The compounds were initially assessed on non-stressed HeLa cells to evaluate the capability of the compounds to affect the AQPs permeability in absence of an oxidant stimuli. […] Conversely, curcumin directly affect AQPs resulting in a significative permeability reduction (75% of k relative). RC-33, 12 and curcumin were further assessed under oxidative stress conditions induced by heating the cell cultures. […] Thus, to probe the entanglement between S1R, AQP permeability and antioxidant protection, compound 12 was assessed against stressed HeLa cells in presence of NE-100, a well-known and fully characterized S1R antagonist.
Osmotic water permeability was measured in HeLa cells suspension by the stopped-flow light scattering method as previously described.
The antioxidant effect of compound 12 on water permeability HeLa cells were divided into different groups: (1) Controls, cells incubated at room temperature (21 °C); (2) heat-stressed cells, cells subjected to heat-treatment by incubating them in a water thermostatic and shacking bath at 42 °C for 3 h; (3) heat-stressed cells pre-treated, cells heat-stressed in the presence of the compound 12 at 20 µM final concentration (dissolved in methanol). Moreover, to test the possible capacity of the molecules to affect the AQP gating in normal condition, HeLa cells were treated in the presence and in the absence of the compounds by incubating at 21 °C for 3 h.

[7] = target: T1, S1R; design: method as in PMID 30223122; conditions: read-out: KiS1R; cited from earlier work
[8] = target: S2R; design: method as in PMID 30223122; conditions: read-out: KiS2R; cited from earlier work
[9] = guinea pig cerebral cortex membranes, [3H]-(+)-pentazocine, read-out: Experimental Ki S1R (nM) ± SEM
[10] = ln of experimental Ki S1R (nM), read-out: Experimental Ki S1R (converted)
[11] = Experimental Ki S1R (nM) ± SEM, guinea pig cerebral cortex membranes, [3H]-(+)-pentazocine
[12] = Experimental ln(Ki), ln of experimental Ki S1R (nM)
[13] = heat-stressed HeLa cells (42 °C 3 h), pre-treated at 20 µM
[14] = non-stressed HeLa cells, 21 °C 3 h, 20 µM

T1 sequence (Q60492 whole entry): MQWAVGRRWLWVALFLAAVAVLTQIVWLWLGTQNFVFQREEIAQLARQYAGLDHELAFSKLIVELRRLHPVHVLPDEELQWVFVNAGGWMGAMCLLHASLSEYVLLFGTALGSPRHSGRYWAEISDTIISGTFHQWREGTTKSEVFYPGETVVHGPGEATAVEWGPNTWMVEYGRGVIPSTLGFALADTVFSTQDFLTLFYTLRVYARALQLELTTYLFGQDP
Sequence of AChE (O42275 24-633): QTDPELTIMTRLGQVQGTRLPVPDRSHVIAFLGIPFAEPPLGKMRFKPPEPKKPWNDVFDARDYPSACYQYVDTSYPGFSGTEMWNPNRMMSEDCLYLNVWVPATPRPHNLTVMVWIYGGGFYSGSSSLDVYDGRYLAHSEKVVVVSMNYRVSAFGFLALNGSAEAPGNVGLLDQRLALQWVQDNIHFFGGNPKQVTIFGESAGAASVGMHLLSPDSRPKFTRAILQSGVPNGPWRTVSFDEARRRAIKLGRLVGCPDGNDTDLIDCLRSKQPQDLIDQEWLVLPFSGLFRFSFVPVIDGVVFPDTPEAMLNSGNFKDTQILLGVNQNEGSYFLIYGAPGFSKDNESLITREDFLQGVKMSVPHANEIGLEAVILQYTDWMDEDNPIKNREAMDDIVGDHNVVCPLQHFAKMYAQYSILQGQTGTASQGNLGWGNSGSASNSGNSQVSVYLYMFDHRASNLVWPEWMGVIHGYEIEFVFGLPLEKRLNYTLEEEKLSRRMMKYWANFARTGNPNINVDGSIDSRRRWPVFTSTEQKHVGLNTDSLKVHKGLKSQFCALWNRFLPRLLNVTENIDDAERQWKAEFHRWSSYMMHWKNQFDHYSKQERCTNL
T3 sequence (Q13224 27-1484, other chains not shown): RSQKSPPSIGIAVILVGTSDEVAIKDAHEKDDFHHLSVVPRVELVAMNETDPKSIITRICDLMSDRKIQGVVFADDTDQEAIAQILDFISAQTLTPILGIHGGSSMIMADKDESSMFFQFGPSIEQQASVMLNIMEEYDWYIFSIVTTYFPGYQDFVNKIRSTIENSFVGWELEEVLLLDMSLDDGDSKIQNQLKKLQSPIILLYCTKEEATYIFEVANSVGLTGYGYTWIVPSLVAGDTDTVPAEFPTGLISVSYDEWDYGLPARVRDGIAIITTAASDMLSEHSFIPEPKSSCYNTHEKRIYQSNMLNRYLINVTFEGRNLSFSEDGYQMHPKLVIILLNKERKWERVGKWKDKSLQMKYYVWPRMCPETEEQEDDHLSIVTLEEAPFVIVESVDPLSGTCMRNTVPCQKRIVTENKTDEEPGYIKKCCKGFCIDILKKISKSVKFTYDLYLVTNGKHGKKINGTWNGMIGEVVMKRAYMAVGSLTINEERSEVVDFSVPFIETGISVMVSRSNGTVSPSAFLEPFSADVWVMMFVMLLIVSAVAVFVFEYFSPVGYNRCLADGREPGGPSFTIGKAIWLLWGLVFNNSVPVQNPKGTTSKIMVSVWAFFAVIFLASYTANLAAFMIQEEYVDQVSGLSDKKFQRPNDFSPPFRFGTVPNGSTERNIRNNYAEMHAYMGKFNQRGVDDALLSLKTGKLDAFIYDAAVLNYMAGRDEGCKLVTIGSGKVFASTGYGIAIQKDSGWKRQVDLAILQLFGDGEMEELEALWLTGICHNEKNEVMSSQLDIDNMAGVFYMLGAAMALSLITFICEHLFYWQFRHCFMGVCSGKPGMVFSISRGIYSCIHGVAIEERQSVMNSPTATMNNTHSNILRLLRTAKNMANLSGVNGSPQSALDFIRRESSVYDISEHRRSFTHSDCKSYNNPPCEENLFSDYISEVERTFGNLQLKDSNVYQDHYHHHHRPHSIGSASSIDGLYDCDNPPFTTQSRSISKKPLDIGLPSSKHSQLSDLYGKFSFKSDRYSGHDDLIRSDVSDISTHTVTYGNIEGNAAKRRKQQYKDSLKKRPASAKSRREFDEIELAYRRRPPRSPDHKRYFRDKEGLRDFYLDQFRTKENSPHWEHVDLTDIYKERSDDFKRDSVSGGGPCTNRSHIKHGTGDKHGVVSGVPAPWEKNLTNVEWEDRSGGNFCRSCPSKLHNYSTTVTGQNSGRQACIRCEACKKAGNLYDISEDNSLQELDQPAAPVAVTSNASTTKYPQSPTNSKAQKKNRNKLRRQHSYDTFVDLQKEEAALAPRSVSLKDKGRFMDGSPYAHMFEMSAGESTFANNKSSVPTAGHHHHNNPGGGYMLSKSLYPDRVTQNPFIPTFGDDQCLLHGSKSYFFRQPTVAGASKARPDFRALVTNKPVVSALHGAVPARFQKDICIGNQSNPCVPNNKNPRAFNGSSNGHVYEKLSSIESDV

`O=C(CN1CCCCC1)c1ccc(-c2ccccc2)cc1` (as salt: hydrochloride) [Compound 8, 1-(2-([1,1’-biphenyl]-4-yl)-2-oxoethyl)piperidin-1-ium hydrochloride] gave a melting point of 236 to 238 °C.

For `O=C(CN1CCCCC1)c1ccc(OCc2ccccc2)cc1` (as salt: hydrochloride) [Compound 9, 1-(2-(4-(benzyloxy)phenyl)-2-oxoethyl)piperidin-1-ium hydrochloride], the melting point was 86 to 88 °C.

Work on `O=C(CCCN1CCCCC1)c1ccc(OCc2ccccc2)cc1` (as salt: hydrochloride) [Compound 13, 1-(4-(4-(benzyloxy)phenyl)-4-oxobutyl)piperidin-1-ium hydrochloride] yielded a melting point of 188 to 190 °C.

For `O=C(CN1CCC(Cc2ccccc2)CC1)c1ccc2ccccc2c1` [Compound 1], the “ln(Ki)” value [1] was 3.296.

In the case of `O=C(CCN1CCCCC1)c1ccc(-c2ccccc2)cc1` [Compound 2], the “ln(Ki)” value [1] is reported as 2.708.

For `O=C(CCN1CCCCC1)c1ccc2ccccc2c1` [Compound 3], the “ln(Ki)” value [1] was 0.788.

With `O=C(CCN1CCOCC1)c1ccc(-c2ccccc2)cc1` [Compound 4] the “ln(Ki)” value [1] was 1.065.

With `O=C(CCN1CCOCC1)c1ccc2ccccc2c1` [Compound 5] the “ln(Ki)” value [1] was 2.197.

With `O=C(CN1CCC(Cc2ccccc2)CC1)c1ccc(-c2ccccc2)cc1` [Compound 6] the “ln(Ki)” value [1] was 5.829.

`O=C(CN1CCCCC1)c1ccc(-c2ccccc2)cc1` [Compound 8, 1-(2-([1,1’-biphenyl]-4-yl)-2-oxoethyl)piperidin-1-ium hydrochloride] gave a Ki [2, 9] of 132 ± 55 nM and a Ki [2, 10] of 132 nM.

In the case of `O=C(CN1CCCCC1)c1ccc(OCc2ccccc2)cc1` [Compound 9, 1-(2-(4-(benzyloxy)phenyl)-2-oxoethyl)piperidin-1-ium hydrochloride], the Ki [2, 11] is reported as 48 ± 12 nM and the Ki [2, 12] is reported as 48 nM.

For `O=C(CCN1CCCCC1)c1ccc(OCc2ccccc2)cc1` [Compound 10, 1-(3-(4-(benzyloxy)phenyl)-3-oxopropyl)piperidin-1-ium hydrochloride], the Ki [2, 9] was 25 ± 7 nM and the Ki [2, 10] was 25 nM.

Work on `O=C(CCCN1CCCCC1)c1ccc2ccccc2c1` [Compound 11, 1-(4-(naphthalen-2-yl)-4-oxobutyl)piperidin-1-ium hydrochloride] yielded a Ki [3] of 50 nM, a Ki [2, 9] of 4.4 ± 2.4 nM and a Ki [2, 10] of 4.4 nM.

`O=C(CCCN1CCCCC1)c1ccc(-c2ccccc2)cc1` [Compound 12, 1-(4-([1,1’-biphenyl]-4-yl)-4-oxobutyl)piperidin-1-ium hydrochloride] gave a Ki [4] of 200 nM, an inhibition at 50 µM ([5]; 50 μM) of 72% and an IC50 ([5]; Ellman's method) of 680 ± 90 nM. The “osmotic water permeability, percent of k relative” value [6, 13] was “able to prevent the water permeability reduction”, the “osmotic water permeability, percent of k relative” value [6, 14] was “did not affect the water permeability” and the Ki [2, 11] was 33 ± 14 nM. It also gave a Ki [2, 12] of 33 nM.

Compound `O=C(CCCN1CCCCC1)c1ccc(OCc2ccccc2)cc1` [Compound 13, 1-(4-(4-(benzyloxy)phenyl)-4-oxobutyl)piperidin-1-ium hydrochloride] has a Ki [2, 9] of 87 ± 28 nM and a Ki [2, 10] of 87 nM.

With `CCCN(CCC)CCc1ccc(OC)c(OCCc2ccccc2)c1` [NE-100] the “osmotic water permeability, percent of k relative” value [6, 13] was 78 % of k relative.

For `CC(CCN1CCCCC1)c1ccc(-c2ccccc2)cc1` (stereo not shown) [RC-33, 1-[3-(1,1′-biphen)-4-yl]butylpiperidine], the “osmotic water permeability, percent of k relative” value [6, 13] is listed as “able to prevent the water permeability reduction”, the “osmotic water permeability, percent of k relative” value [6, 14] is listed as “comparable” and the Ki [7] is listed as 1.8 ± 0.1 nM. For the same compound, the Ki [8] was 45 ± 16 nM.

With `COc1cc(/C=C/C(=O)CC(=O)/C=C/c2ccc(O)c(OC)c2)ccc1O` [curcumin] the “osmotic water permeability, percent of k relative” value [6, 13] was “not able to protect the AQPs’ permeability properties” and the “osmotic water permeability, percent of k relative” value [6, 14] was 75 % of k relative.
